Earlier results in US20170049836A1, “COMPOSITIONS COMPRISING BOTANICALS, INCLUDING THE USE AND METHOD OF USE THEREOF” (FEM MED FORMULAS LIMITED PARTNERSHIP, priority 2010, published 2017).
Where two headings read alike, the source gives them in different places.

Columns and labels:
[1] = system: estrogen receptor-positive breast cancer cells
[2] = system: ratio of 2-OHE to 16-αOHE

## C[C@]12CC[C@@H]3c4cc(O)c(O)cc4CC[C@H]3[C@@H]1CCC2=O [2-OHE, 2-hydroxyestrone]
[1]
  effect on cell growth / proliferation: no effect on cell growth

## C[C@]12CC[C@@H]3c4ccc(O)cc4CC[C@H]3[C@@H]1C[C@@H](O)C2=O [16-αOHE, 16-αhydrxyestrone]
[1]
  effect on cell growth / proliferation: stimulates proliferation

## OCc1c[nH]c2ccccc12 [I3C, Indole-3-carbinol]
[2]; 17 of 20 women, 200 or 400 mg/day
  women with sustained increase in ratio of 2-OHE to 16-αOHE: 85%
[2]; 20 women, 400 mg daily
  average increase in 2-OHE:16-αOHE ratio: 65%
[2]; 200-400 mg, regular consumption, vast majority of women
  increase in 2-OHE:16-αOHE ratio, overall: approx. 60%
[2]; 200 or 400 mg/day, over the course of the trial
  average increase in ratio of 2-OHE to 16-αOHE: 44%
[2]; all 20 women, 300 or 400 mg, 4 weeks
  change in 2-OHE:16-αOHE ratio: significantly increased
[2]; non-obese women, same trial
  average increase in 2-OHE:16-αOHE ratio: 38%
[2]; obese women (four out of five), two-month period
  average increase in 2-OHE:16-αOHE ratio: 93%
